The term IC50 denotes the concentration that gives 50% inhibition. Read a high IC50 as weaker potency.

From ChEMBL document CHEMBL5465560, “Selectivity Literature for EUbOPEN Chemogenomic Library” (2024) come the findings set out here.

In experiment [1] the target is T1, Aurora kinase A (Homo sapiens) (UniProt O14965).
T1 sequence (whole entry): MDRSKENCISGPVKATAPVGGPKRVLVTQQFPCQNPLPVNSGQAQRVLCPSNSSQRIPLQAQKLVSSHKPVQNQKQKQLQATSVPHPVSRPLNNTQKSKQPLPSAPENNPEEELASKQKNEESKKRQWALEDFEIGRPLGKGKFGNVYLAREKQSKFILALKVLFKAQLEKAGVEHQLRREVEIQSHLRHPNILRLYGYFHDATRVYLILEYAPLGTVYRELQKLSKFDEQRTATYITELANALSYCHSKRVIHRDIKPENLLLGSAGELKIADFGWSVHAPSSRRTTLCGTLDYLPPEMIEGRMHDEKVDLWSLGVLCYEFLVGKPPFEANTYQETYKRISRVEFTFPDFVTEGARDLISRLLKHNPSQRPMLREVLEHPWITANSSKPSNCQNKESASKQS
The experiment in a line: Selectivity interaction (KinomeScan (DiscoverX)) EUB0000607a STK6. The conditions noted are these: at 10 µM.

Experiment [2] has as its system Proto-oncogene tyrosine-protein kinase receptor Ret (Homo sapiens), P07949 [M918T]. The conditions noted are these: at 10 µM.
Experiment [3] deals with MAP kinase-interacting serine/threonine-protein kinase 1 (Homo sapiens) (UniProt Q9BUB5). The conditions noted are these: at 10 µM.
Chain of MAP kinase-interacting serine/threonine-protein kinase 1 (Homo sapiens) (Q9BUB5 whole entry, looked up): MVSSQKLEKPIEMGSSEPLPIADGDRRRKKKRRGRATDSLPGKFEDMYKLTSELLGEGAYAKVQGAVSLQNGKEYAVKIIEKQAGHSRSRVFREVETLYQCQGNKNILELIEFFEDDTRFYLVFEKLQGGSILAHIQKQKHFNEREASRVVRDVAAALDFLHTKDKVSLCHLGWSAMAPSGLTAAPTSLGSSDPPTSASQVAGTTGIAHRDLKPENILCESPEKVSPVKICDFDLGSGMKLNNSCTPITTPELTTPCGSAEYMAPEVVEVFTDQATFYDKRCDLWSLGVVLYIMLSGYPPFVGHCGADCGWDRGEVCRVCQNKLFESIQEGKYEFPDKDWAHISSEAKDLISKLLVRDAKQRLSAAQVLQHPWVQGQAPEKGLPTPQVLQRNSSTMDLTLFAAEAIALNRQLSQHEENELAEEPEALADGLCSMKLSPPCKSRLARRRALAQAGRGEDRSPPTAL
Experiment [4] concerns the target T2, Mitogen-activated protein kinase kinase kinase 2 (Homo sapiens) (UniProt Q9Y2U5).
T2 sequence (whole entry): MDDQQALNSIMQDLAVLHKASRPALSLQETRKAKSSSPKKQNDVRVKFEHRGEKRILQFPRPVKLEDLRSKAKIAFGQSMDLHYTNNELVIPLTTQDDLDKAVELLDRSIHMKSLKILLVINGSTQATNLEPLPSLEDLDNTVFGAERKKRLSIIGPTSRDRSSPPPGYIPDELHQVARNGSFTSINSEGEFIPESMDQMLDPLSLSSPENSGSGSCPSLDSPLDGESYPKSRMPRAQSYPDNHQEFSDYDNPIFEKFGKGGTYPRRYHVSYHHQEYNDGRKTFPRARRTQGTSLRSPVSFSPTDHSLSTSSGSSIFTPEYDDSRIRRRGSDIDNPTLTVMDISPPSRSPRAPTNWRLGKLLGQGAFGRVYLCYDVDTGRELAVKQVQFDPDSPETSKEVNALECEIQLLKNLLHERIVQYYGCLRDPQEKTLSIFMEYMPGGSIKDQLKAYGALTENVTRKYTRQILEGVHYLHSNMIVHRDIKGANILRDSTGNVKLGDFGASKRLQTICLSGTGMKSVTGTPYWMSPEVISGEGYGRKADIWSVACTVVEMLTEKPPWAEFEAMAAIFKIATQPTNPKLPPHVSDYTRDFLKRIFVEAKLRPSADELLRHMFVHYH
The experiment in a line: Selectivity interaction (KinomeScan (DiscoverX)) EUB0000229b MAP3K2. The conditions noted are these: at 10 µM.

In experiment [5] the target is Cyclin-dependent kinase 15 (Homo sapiens) (UniProt Q96Q40). The experiment can be described thus: Selectivity interaction (KinomeScan (DiscoverX)) EUB0001619a CDK15. The conditions noted are these: at 1 µM.
Chain of Cyclin-dependent kinase 15 (Homo sapiens) (Q96Q40 whole entry): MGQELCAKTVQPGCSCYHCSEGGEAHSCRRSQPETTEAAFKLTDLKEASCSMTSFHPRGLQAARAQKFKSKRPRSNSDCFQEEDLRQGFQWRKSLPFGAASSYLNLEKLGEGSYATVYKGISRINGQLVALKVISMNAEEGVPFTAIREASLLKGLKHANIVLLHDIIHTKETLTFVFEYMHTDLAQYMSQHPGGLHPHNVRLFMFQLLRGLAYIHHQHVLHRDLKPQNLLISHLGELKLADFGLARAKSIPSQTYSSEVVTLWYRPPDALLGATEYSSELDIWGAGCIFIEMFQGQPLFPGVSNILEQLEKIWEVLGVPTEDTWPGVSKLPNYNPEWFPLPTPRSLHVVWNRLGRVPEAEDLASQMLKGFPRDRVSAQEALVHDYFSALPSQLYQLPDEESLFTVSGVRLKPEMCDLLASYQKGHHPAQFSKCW
In experiment [6] the target is T3, Dual specificity mitogen-activated protein kinase kinase 3 (Homo sapiens) (UniProt P46734).
T3 sequence (whole entry): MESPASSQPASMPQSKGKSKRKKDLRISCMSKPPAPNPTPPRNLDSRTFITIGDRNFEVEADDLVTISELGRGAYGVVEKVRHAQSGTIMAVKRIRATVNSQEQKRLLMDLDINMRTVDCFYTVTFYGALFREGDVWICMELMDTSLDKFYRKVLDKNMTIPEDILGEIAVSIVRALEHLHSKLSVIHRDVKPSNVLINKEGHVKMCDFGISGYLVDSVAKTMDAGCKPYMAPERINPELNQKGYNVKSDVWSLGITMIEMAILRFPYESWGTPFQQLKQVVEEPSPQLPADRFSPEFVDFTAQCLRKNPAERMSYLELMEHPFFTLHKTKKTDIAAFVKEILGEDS
The experiment in a line: Selectivity interaction (ActivX KiNativ screen (ex vivo kinase selectivity in human PBMCs)) EUB0001619a MAP2K3. The experiment is classed as cell-based. The conditions noted are these: PBMC, at 1 µM.

Experiment [7] addresses Tyrosine-protein kinase JAK1 (Homo sapiens, UniProt P23458).
The target of experiment [8] is Cyclin-dependent kinase 14 (Homo sapiens) (UniProt O94921). The experiment in a line: Selectivity interaction (KinomeScan (DiscoverX)) EUB0001049a CDK14. The following applies: at 1 µM.
Chain of Cyclin-dependent kinase 14 (Homo sapiens) (O94921 whole entry): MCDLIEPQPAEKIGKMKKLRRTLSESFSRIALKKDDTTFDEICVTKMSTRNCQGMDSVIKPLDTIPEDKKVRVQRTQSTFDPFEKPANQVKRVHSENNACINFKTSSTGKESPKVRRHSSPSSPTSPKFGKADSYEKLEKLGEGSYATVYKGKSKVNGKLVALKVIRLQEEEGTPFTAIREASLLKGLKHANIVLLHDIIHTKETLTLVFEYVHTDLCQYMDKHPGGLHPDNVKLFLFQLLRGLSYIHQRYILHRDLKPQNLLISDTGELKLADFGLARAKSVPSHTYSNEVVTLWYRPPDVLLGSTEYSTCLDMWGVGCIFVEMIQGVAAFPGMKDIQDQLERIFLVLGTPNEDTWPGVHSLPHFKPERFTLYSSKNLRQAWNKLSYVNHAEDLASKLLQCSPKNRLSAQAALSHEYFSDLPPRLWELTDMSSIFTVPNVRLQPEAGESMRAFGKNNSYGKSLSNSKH
The target of experiment [9] is T4, Protein arginine N-methyltransferase 9 (Homo sapiens) (UniProt Q6P2P2).
T4 sequence (whole entry): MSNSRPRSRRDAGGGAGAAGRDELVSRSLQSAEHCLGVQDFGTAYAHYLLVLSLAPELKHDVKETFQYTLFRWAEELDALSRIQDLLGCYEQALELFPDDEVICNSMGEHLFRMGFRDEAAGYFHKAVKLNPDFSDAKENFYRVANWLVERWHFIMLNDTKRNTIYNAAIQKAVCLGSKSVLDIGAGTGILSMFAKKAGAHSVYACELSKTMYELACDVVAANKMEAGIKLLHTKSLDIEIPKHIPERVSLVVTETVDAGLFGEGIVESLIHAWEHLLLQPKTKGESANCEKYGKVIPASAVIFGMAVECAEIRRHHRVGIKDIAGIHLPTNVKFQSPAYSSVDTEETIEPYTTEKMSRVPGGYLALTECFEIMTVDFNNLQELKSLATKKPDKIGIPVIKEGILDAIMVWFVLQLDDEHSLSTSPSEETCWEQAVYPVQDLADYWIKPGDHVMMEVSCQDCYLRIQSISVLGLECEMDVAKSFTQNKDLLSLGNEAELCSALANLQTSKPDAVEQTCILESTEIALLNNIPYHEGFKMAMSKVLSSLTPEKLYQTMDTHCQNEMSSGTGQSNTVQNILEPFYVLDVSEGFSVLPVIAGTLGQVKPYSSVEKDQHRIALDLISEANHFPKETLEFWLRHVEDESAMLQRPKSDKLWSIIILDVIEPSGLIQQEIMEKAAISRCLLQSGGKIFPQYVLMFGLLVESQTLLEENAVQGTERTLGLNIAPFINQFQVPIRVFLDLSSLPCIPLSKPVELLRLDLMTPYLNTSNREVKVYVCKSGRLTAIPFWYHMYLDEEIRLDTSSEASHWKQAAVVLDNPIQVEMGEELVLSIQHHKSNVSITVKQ
The experiment can be described thus: Selectivity interaction (Methyltransferase screen (radiometric assays, panel of 8 PRMTs, 21 protein lysine methyltransferases, 3 DNA methyltransferases, and one RNA methyltransferase)) EUB0000272b PRMT9.

Chain of Tyrosine-protein kinase JAK1 (P23458 whole entry): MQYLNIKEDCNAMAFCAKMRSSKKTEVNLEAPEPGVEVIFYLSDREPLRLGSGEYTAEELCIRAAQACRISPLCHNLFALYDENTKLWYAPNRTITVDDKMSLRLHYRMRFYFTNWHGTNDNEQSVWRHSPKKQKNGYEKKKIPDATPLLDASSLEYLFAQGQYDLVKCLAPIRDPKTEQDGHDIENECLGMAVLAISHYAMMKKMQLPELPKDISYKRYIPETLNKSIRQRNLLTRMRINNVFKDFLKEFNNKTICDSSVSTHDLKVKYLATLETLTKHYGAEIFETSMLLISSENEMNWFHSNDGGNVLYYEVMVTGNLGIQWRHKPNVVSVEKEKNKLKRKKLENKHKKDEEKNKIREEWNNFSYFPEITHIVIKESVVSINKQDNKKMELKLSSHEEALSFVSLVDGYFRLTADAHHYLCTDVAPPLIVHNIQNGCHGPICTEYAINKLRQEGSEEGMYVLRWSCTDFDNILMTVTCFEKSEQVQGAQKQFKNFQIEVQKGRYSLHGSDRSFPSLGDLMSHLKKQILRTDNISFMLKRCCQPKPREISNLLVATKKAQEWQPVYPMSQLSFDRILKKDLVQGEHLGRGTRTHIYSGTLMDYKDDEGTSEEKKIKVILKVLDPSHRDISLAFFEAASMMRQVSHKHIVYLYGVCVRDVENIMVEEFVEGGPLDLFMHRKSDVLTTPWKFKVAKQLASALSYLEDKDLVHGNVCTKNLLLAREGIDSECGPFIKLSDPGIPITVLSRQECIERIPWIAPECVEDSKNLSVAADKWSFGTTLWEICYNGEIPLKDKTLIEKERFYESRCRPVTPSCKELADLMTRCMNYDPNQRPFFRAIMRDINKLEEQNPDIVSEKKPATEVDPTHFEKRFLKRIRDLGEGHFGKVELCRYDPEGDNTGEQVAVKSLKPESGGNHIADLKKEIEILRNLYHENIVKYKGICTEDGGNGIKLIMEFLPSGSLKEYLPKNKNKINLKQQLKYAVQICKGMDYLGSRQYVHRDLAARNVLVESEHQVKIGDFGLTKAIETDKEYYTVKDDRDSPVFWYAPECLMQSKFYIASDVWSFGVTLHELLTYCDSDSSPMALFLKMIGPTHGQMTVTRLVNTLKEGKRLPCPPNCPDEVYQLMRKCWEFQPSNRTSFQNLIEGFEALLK
Chain of Proto-oncogene tyrosine-protein kinase receptor Ret (Homo sapiens), P07949 [M918T] (P07949 whole entry M918T): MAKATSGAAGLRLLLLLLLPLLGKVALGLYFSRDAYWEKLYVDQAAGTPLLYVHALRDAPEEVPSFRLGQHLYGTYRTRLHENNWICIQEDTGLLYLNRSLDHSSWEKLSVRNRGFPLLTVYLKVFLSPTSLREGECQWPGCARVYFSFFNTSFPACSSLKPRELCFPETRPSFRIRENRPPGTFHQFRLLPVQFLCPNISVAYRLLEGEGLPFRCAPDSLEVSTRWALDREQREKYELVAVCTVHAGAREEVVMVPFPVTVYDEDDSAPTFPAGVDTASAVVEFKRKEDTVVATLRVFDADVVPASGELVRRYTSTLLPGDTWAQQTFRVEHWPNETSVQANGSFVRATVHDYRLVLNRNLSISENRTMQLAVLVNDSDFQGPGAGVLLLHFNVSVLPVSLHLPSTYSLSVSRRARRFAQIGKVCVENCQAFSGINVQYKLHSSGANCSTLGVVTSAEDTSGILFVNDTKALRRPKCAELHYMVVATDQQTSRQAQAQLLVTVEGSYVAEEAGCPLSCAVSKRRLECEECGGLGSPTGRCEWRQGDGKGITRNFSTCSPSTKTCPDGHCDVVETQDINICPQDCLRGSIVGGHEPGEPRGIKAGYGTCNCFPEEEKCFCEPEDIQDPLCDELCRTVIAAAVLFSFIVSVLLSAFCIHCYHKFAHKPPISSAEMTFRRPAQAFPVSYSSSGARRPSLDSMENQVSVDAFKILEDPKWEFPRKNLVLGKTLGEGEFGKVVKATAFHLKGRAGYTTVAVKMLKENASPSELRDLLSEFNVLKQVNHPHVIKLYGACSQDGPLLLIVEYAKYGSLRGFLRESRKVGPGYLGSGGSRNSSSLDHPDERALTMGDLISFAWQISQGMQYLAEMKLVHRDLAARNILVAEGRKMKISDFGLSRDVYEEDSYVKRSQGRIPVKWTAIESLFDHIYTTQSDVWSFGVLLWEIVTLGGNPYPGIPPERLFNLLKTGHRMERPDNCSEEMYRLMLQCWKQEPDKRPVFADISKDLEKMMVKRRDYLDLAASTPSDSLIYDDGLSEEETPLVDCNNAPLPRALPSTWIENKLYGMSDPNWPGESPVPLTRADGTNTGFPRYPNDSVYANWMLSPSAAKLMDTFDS

For `CNC(=O)Nc1ccc(-c2nc(N3CC4CCC(C3)O4)c3cnn(C4CCC5(CC4)OCCO5)c3n2)cc1`, the % of control in experiment [1] was 100%.

With `Cc1cc([C@@H](C)Nc2ccccc2C(=O)O)c2nc(N3CCOCC3)cc(=O)n2c1` [AZD-6482], the % of control in experiment [2] was found to be 100%; in experiment [3] it was 92%.

Take `COc1cc(N(C)c2ccnc3ccc(C(F)(F)F)cc23)cc(OC)c1OC`: the % binding in experiment [4] amounted to 52%.

With `N#Cc1cccc(-c2c[nH]c3ncnc(N4CCOCC4)c23)c1`, the % of control in [5] came to 100%. Further, the % of inhibition in experiment [6] worked out at 6%.

Consider `CCc1cccc(CC)c1NC(=O)c1nn(C)c2c1CCc1cnc(Nc3ccc(C(=O)NC4CCN(C)CC4)cc3OC(F)(F)F)nc1-2`, for which, in experiment [7], the concentration for half-maximal inhibition (IC50) is above 10 µM.

Molecule `COc1cc(Nc2nc(C)cc(-c3cnn4nc(OC)ccc34)n2)cc(C(F)(F)F)c1` yielded a % of control in [8] of 87%.

For the molecule `Cc1cc(C)cc([C@H]2c3cc(C)ccc3NC(=O)CN2C(=O)c2ccc(Br)s2)c1`, the % of activity in experiment [9] (at 1 µM) and in experiment [9] (at 10 µM) was 105% each time.
